Active and inactive are the calls of the source. Rule as the data show it: actives have a measured IC50 and inactives only a lower limit.

The assay deals with Envelope glycoprotein gp160 (Human immunodeficiency virus 1, UniProt Q6QLK5). The assay is described as follows: cell-free HIV fusion peptide-binding blockers – biochemical, uHTS, fluorescence dequenching, […] (AID 1986).
Sequence of Envelope glycoprotein gp160 (Q6QLK5 whole entry, the tested form may be a part): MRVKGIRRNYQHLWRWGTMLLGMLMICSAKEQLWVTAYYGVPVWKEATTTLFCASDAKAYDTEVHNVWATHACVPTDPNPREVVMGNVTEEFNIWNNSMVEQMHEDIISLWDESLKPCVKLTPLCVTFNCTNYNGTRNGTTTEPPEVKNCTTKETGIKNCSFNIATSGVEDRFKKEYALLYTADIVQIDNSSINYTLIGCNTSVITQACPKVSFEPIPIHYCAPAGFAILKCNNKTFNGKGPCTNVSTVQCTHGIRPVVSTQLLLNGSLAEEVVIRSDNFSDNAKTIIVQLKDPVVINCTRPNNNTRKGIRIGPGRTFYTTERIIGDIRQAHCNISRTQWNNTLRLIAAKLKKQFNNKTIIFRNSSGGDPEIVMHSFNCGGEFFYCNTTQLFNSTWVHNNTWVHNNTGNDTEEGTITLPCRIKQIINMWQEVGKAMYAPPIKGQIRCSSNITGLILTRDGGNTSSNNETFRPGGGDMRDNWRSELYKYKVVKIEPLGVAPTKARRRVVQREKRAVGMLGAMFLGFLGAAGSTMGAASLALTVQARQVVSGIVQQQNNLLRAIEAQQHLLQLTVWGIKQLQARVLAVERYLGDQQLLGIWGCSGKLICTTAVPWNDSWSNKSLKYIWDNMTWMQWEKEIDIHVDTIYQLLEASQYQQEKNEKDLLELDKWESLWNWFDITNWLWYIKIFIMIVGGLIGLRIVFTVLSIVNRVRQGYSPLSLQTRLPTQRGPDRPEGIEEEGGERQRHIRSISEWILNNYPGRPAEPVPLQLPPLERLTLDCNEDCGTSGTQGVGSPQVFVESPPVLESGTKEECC

Turning to `O=c1[nH]c(=S)[nH]c2c1C(c1ccc(Br)cc1)c1c([nH]c(=S)[nH]c1=O)O2`, the half-maximal inhibitory concentration (IC50) (in general, the concentration that inhibits the measured activity by half) was 11.3 µM (active).

For the origin of these results see ChEMBL document CHEMBL1201862, “PubChem BioAssay data set” (2004).
